Test results from patent US20040242542A1, “Compositions and methods for inducing CD81 dependent antiproliferation and for treating hepatitis C and other disorders” (The Regents of the University of California, priority 2003, published 2004).
pIC50: −log10 of the molar value.

What was measured:
[1] = tested on: CD81-enriched cell lines (astrocyte) vs. CD81-deficient cell lines (C6 glioma); experiment: Antiproliferation of CD81-enriched astrocytes vs. CD81-deficient C6 glioma cells; format: cell-based; details: for astrocyte-selective antiproliferation: concentration range of 0.1 to 10 μM, astrocytes relative to CD81-deficient cell lines
Description: Further in accordance with the present invention, there are provided methods for synthesis of amantadine analogues by appending primary amines to 1-boraadamantane to evaluate such compounds for CD81 dependent antiproliferation of CD81-enriched cell lines (astrocyte) vs. CD81-deficient cell lines (C6 glioma). Specific details of the synthetic methods of the present invention as well as related data is now published in Wagner, Carl E. et al., Synthesis of-1-Boraadamantaneamine Derivatives with Selective Astrocyte vs C6 Glioma Antiproliferative Activity. A Novel Class of Anti-Hepatitis C Agents with Potential to Bind CD81, J.Med.Chem., Vol.46,2823-2833 (2003) and Wagner, Carl E., Syntheis and First Molecular Structure of a Bis-2-spiro-1boraadamantane Dirivative, Organic Letters, Vol. 6, No. 3, 313-316 (2004), copies of which are filed herewith and the entireties of which are expressly incorporated herein by reference.
The amantadine analogues of the present invention that bind to and activate CD81 may have the potential to prevent or treat HCV infections. Each compound's potential for preventive and therapeutic activity stems from the compound's potential to block viral attachment, virus-cell fusion or virus entry into host cells, or similarly counter potential mechanisms of HCV immune evasion. Out of a library of over 500 compounds including randomly selected small molecules and rationally designed small molecules, only the 1-boraadamantane amine compounds display a significant antiproliferative effect on the CD81-enriched astrocytes relative to the CD81-deficient cell lines. […] Additionally, structurally similar adamantane analogues to the active primary amine 1-boraadamantane complexes identified in this assay were synthesized for testing.
A variety of 1-boraadamatane amine complexes were synthesized by stoichiometric addition of a primary amine to 1-boraadamantane·THF. These complexes were subsequently evaluated for an antiproliferative effect on CD81-enriched cell lines to provide evidence for binding and activation of the CD81 receptor. Additional amantidine analogues structurally similar to the 1-boraadamantane amine complexes were also synthesized.

α4 β1/VCAM cell line = α4 β1/VCAM cell line (Homo sapiens, UniProt P05556+P13612); details: reported in the literature; read-out: IC50 as antagonist for α4 β1/VCAM; cited from earlier work
Sequence of α4 β1/VCAM cell line (P13612 34-1032): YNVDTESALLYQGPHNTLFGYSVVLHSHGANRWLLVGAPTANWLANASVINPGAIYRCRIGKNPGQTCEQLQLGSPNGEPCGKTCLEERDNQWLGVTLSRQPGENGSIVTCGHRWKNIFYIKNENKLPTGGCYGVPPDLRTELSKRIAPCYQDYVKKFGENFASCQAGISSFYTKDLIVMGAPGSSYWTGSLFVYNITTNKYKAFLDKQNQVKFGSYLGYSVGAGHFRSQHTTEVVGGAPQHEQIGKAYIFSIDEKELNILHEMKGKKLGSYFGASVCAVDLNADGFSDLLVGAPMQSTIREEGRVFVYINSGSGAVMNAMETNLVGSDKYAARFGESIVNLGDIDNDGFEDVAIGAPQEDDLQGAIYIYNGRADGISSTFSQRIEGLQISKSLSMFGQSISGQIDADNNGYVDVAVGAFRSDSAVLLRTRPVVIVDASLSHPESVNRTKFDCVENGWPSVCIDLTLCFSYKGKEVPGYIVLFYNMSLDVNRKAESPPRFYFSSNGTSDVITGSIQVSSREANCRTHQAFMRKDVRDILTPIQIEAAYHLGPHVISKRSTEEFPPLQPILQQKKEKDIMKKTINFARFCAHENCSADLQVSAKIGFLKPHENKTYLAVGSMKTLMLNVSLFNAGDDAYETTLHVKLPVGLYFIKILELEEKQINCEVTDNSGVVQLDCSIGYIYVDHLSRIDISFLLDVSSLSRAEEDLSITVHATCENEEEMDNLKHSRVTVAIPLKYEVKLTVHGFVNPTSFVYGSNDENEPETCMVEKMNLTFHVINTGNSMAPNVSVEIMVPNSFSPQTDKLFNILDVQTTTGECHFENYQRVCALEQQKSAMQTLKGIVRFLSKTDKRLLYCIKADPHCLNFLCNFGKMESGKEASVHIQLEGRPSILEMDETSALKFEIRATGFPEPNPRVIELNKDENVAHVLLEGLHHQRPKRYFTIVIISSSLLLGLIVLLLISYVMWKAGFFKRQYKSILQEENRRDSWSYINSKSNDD
Sequence of α4 β1/VCAM cell line (P05556 21-798): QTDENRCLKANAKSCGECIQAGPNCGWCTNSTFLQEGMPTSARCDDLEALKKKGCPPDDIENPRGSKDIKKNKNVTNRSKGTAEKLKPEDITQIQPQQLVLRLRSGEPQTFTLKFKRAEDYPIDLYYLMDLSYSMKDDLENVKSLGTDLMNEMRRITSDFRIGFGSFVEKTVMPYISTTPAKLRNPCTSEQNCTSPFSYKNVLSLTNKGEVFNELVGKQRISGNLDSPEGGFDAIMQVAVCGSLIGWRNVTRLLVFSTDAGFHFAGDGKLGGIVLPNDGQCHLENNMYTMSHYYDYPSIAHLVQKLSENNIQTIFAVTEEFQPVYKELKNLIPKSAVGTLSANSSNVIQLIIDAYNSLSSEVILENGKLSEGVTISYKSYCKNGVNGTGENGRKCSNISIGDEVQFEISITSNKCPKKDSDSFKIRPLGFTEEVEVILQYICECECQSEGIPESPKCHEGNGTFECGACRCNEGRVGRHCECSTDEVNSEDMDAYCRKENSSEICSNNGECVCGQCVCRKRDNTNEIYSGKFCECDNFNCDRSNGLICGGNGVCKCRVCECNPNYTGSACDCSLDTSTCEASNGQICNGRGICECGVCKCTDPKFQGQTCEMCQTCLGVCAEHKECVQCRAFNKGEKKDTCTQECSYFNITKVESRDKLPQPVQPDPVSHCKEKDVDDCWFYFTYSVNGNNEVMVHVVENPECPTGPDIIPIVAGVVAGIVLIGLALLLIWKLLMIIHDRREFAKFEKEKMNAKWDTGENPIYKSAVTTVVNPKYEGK

Compound	astrocyte-selective antiproliferation [1]	pIC50 (α4 β1/VCAM cell line)	other results
1-boraadamantane 1-aminoadamantane complex [Complex 1]			inhibiting the proliferation of the astrocyte cell line (ranking) ([1]; cell based assay, astrocyte cell line): most active compounds
O=C(O)[C@H](Cc1ccccc1)NC(=O)C12CC3CC(CC(C3)C1)C2 [Complex 15]	astrocyte-selective antiproliferation		antiproliferative character (ranking) ([1]; 0.1 to 10 μM range of concentration): greatest antiproliferative character
CC(C)C[C@H](NC(=O)C12CC3CC(CC(C3)C1)C2)C(=O)O [Complex 16]	astrocyte-selective antiproliferation		
COC(=O)C(CSSCC(NC(=O)C12CC3CC(CC(C3)C1)C2)C(=O)OC)NC(=O)C12CC3CC(CC(C3)C1)C2 [Compound 25, N,N-diadamantylcarbonyl-L-cystine methyl ester]		< 3.10	
O=C(O)C(CSSCC(NC(=O)C12CC3CC(CC(C3)C1)C2)C(=O)O)NC(=O)C12CC3CC(CC(C3)C1)C2 (stereo not shown) [Compound 26]		5.14	
Cl.NC12CC3CC(CC(C3)C1)C2 [amantadine, 1-aminoadamantane hydrochloride, reference compound]			reduction of astrocyte proliferation ([1]; at high concentrations (>100 _M)): only slightly reduces astrocyte proliferation
